Measured values as given in ChEMBL document CHEMBL3045943, “Novel N-aryl(alkaryl)-2-[(3-R-2-oxo-2H-[1,2,4]triazino[2,3-c]quinazoline-6-yl)thio]acetamides: synthesis, cytotoxicity, anticancer activity, COMPARE analysis and docking” (2013).

How the values were obtained:
Format in all cases: functional
HT-29 = test: Cytotoxicity against Homo sapiens (human) HT-29 cells assessed as cell growth at 10 uM after 48 hr by SRB assay relative to control; conditions: HT-29, 48 h, read-out: Activity
HCT-15 = test: Cytotoxicity against Homo sapiens (human) HCT15 cells assessed as cell growth at 10 uM after 48 hr by SRB assay relative to control; conditions: HCT-15, 48 h, read-out: Activity
[1] = system: Photobacterium leiognathi; test: Growth inhibition of Photobacterium leiognathi Sh1 assessed as bio-luminescence at 0.025 mg/ml after 16 to 18 hr by chronic action test relative to control; parameters: scale not given: the % may be the effect or the level left
MOLT-4 = test: Cytotoxicity against Homo sapiens (human) MOLT4 cells assessed as cell growth at 10 uM after 48 hr by SRB assay relative to control; conditions: MOLT-4, 48 h, read-out: Activity
SR = test: Cytotoxicity against Homo sapiens (human) SR cells assessed as cell growth at 10 uM after 48 hr by SRB assay relative to control; conditions: read-out: Activity
[2] = system: Photobacterium leiognathi; test: Growth inhibition of Photobacterium leiognathi Sh1 assessed as bio-luminescence at 0.25 mg/ml after 16 to 18 hr by chronic action test relative to control; parameters: scale not given: the % may be the effect or the level left
[3] = Cytotoxicity against Homo sapiens (human) […] cells assessed as cell growth at 10 uM after 48 hr by SRB assay relative to control; conditions: read-out: Activity
HL-60(TB) = test: Cytotoxicity against Homo sapiens (human) HL-60(TB) cells assessed as cell growth at 10 uM after 48 hr by SRB assay relative to control; conditions: HL-60, 48 h, read-out: Activity
[4] = system: Photobacterium leiognathi; test: Growth inhibition of Photobacterium leiognathi Sh1 assessed as bio-luminescence at 0.1 mg/ml after 16 to 18 hr by chronic action test relative to control; parameters: scale not given: the % may be the effect or the level left
CCRF-CEM = test: Cytotoxicity against Homo sapiens (human) CCRF-CEM cells assessed as cell growth at 10 uM after 48 hr by SRB assay relative to control; conditions: read-out: Activity
K562 = test: Cytotoxicity against Homo sapiens (human) K562 cells assessed as cell growth at 10 uM after 48 hr by SRB assay relative to control; conditions: K562, 48 h, read-out: Activity
[5] = system: Photobacterium leiognathi; test: Growth inhibition of Photobacterium leiognathi Sh1 assessed as bio-luminescence at 0.025 mg/ml after 10 min by acute action test relative to control; parameters: scale not given: the % may be the effect or the level left
[6] = system: Photobacterium leiognathi; test: Growth inhibition of Photobacterium leiognathi Sh1 assessed as bio-luminescence at 0.25 mg/ml after 10 min by acute action test relative to control; parameters: scale not given: the % may be the effect or the level left
SW-620 = test: Cytotoxicity against Homo sapiens (human) SW620 cells assessed as cell growth at 10 uM after 48 hr by SRB assay relative to control; conditions: SW-620, 48 h, read-out: Activity
HCT-116 = test: Cytotoxicity against Homo sapiens (human) HCT116 cells assessed as cell growth at 10 uM after 48 hr by SRB assay relative to control; conditions: HCT-116, 48 h, read-out: Activity
[7] = system: Photobacterium leiognathi; test: Growth inhibition of Photobacterium leiognathi Sh1 assessed as bio-luminescence at 0.1 mg/ml after 10 min by acute action test relative to control; parameters: scale not given: the % may be the effect or the level left
KM12 = test: Cytotoxicity against Homo sapiens (human) KM12 cells assessed as cell growth at 10 uM after 48 hr by SRB assay relative to control; conditions: KM12, 48 h, read-out: Activity
PC-3 = test: Cytotoxicity against Homo sapiens (human) PC3 cells assessed as cell growth at 10 uM after 48 hr by SRB assay relative to control; conditions: PC-3, 48 h, read-out: Activity
SNB-75 = test: Cytotoxicity against Homo sapiens (human) SNB75 cells after 48 hr by SRB assay; conditions: SNB-75, 48 h
MDA-MB-435 = test: Cytotoxicity against Homo sapiens (human) MDA-MB-435 cells assessed as cell growth at 10 uM after 48 hr by SRB assay relative to control; conditions: MDA-MB-435, 48 h, read-out: Activity
HOP-92 = test: Cytotoxicity against Homo sapiens (human) HOP92 cells assessed as cell growth at 10 uM after 48 hr by SRB assay relative to control; conditions: HOP-92, 48 h, read-out: Activity
SF-295 = test: Cytotoxicity against Homo sapiens (human) SF295 cells assessed as cell growth at 10 uM after 48 hr by SRB assay relative to control; conditions: SF-295, 48 h, read-out: Activity
A498 = test: Cytotoxicity against Homo sapiens (human) A498 cells after 48 hr by SRB assay; conditions: A498, 48 h
UO-31 = test: Cytotoxicity against Homo sapiens (human) UO31 cells after 48 hr by SRB assay; conditions: UO-31, 48 h
LOX IMVI = test: Cytotoxicity against Homo sapiens (human) LOXIMVI cells assessed as cell growth at 10 uM after 48 hr by SRB assay relative to control; conditions: read-out: Activity
SF-268 = test: Cytotoxicity against Homo sapiens (human) SF268 cells assessed as cell growth at 10 uM after 48 hr by SRB assay relative to control; conditions: SF-268, 48 h, read-out: Activity
NCI-H460 = test: Cytotoxicity against Homo sapiens (human) NCI-H460 cells assessed as cell growth at 10 uM after 48 hr by SRB assay relative to control; conditions: NCI-H460, 48 h, read-out: Activity
786-0 = test: Cytotoxicity against Homo sapiens (human) 786-0 cells assessed as cell growth at 10 uM after 48 hr by SRB assay relative to control; conditions: 786-0, 48 h, read-out: Activity
A549 = test: Cytotoxicity against Homo sapiens (human) A549 cells assessed as cell growth at 10 uM after 48 hr by SRB assay relative to control; conditions: A549, 48 h, read-out: Activity
DU-145 = test: Cytotoxicity against Homo sapiens (human) DU145 cells assessed as cell growth at 10 uM after 48 hr by SRB assay relative to control; conditions: DU-145, 48 h, read-out: Activity
U-251 = test: Cytotoxicity against Homo sapiens (human) U251 cells assessed as cell growth at 10 uM after 48 hr by SRB assay relative to control; conditions: U-251, 48 h, read-out: Activity
BT-549 = test: Cytotoxicity against Homo sapiens (human) BT549 cells after 48 hr by SRB assay; conditions: BT-549, 48 h
HOP-62 = test: Cytotoxicity against Homo sapiens (human) HOP62 cells after 48 hr by SRB assay; conditions: HOP-62, 48 h
OVCAR-3 = test: Cytotoxicity against Homo sapiens (human) OVCAR3 cells assessed as cell growth at 10 uM after 48 hr by SRB assay relative to control; conditions: OVCAR-3, 48 h, read-out: Activity

COc1ccc(-c2nn3c(SCC(=O)Nc4ccccc4F)nc4ccccc4c3nc2=O)cc1 showed a growth at 10 µM (HT-29) of 67.8%, a growth at 10 µM (HCT-15) of 92.2% and an Activity [1] of 100%. The growth at 10 µM (MOLT-4) was 52.7%, the growth at 10 µM (SR) was 48.2% and the Activity [2] was 100%. For the same compound, the growth at 10 µM [3] was 67.6%, the growth at 10 µM (HL-60(TB)) was 67.9% and the Activity [4] was 96.67%. For the same compound, the growth at 10 µM (CCRF-CEM) was 67.5%, the growth at 10 µM (K562) was 60.2% and the Activity [5] was 90%. It also gave an Activity [6] of 40%, a growth at 10 µM (SW-620) of 65.6% and a growth at 10 µM (HCT-116) of 56.7%. The Activity [7] was 84% and the growth at 10 µM (KM12) was 51.3%.
O=C(CSc1nc2ccccc2c2nc(=O)c(-c3ccccc3)nn12)NCc1ccccc1 showed a growth at 10 µM (PC-3) of 18.1%, a GI50 (SNB-75) of 2.19 µM and an LC50 (SNB-75) of 43.7 µM. For the same compound, the TGI (SNB-75; read-out: pTGI (converted)) was 13.5 µM, the growth at 10 µM (MDA-MB-435) was 21.7% and the growth at 10 µM (HOP-92) was 24.6%. For the same compound, the growth at 10 µM (SF-295) was 55.7%, the GI50 (A498) was 0.0269 µM and the LC50 (A498) was over 100 µM. For the same compound, the TGI (A498; read-out: pTGI (converted)) was 37.2 µM, the GI50 (UO-31) was 2.57 µM and the LC50 (UO-31) was over 100 µM. For the same compound, the TGI (UO-31; read-out: pTGI) was over 100 µM, the growth at 10 µM (LOX IMVI) was 29.5% and the Activity [1] was 84.9%. The growth at 10 µM (MOLT-4) was 43%, the growth at 10 µM (SR) was 41.9% and the Activity [2] was 78.2%. For the same compound, the growth at 10 µM (SF-268) was 53.1%, the growth at 10 µM (NCI-H460) was 1.57% and the growth at 10 µM [3] was 44.5%. The growth at 10 µM (786-0) was -7.56%, the growth at 10 µM (A549) was 12.8% and the growth at 10 µM (HL-60(TB)) was 51.6%. For the same compound, the Activity [4] was 113.6%, the growth at 10 µM (CCRF-CEM) was 37.9% and the growth at 10 µM (DU-145) was 21.8%. It also gave a growth at 10 µM (U-251) of 30.1%, a growth at 10 µM (K562) of 29.7% and an Activity [5] of 125%. The Activity [6] was 100%, the GI50 (BT-549) was 3.02 µM and the LC50 (BT-549) was over 100 µM. It also gave a TGI (BT-549; read-out: pTGI (converted)) of 7.76 µM, a growth at 10 µM (SW-620) of 19.4% and a growth at 10 µM (HCT-116) of 48.6%. For the same compound, the GI50 (HOP-62) was 2.75 µM, the LC50 (HOP-62) was 30.2 µM and the TGI (HOP-62; read-out: pTGI (converted)) was 7.08 µM. The Activity [7] was 112.5%, the growth at 10 µM (KM12) was 12% and the growth at 10 µM (OVCAR-3) was 13.7%.
